Results reported in PMC5218480 (PLoS ONE, 2017).

Test system: MV-4-11 cells
Assay: Gene expression microarray analysis (Affymetrix PrimeView) and GSEA
Assay type: cell-based, human
Set-up: RFU PODN (11730768_x_at) / Fold change /veh PODN (11730768_x_at) / RFU LINC00158 (11744669_a_at) / Fold change /veh LINC00158 (11744669_a_at) / RFU DUSP10 (11751237_a_at) / Fold change /veh DUSP10 (11751237_a_at) / RFU ID3 (11757404_x_at) / Fold change /veh ID3 (11757404_x_at) / RFU PLEKHG5 (11737974_s_at) / Fold change /veh PLEKHG5 (11737974_s_at) / RFU LRRC4B (11730491_at) / Fold change /veh LRRC4B (11730491_at) / RFU GIMAP4 (11747438_a_at) / Fold change /veh GIMAP4 (11747438_a_at) / RFU KRT8 (11758183_x_at) / Fold change /veh KRT8 (11758183_x_at) / RFU CNN1 (11734310_a_at) / Fold change /veh CNN1 (11734310_a_at) / RFU VPS37D (11726825_at) / Fold change /veh VPS37D (11726825_at) / RFU C10orf10 (11716522_x_at) / Fold change /veh C10orf10 (11716522_x_at) / RFU KIR2DL2 /// KIR2DL4 /// KIR2DL5A /// KIR2DL5B /// KIR2DS1 /// KIR2DS2 /// KIR2DS3 /// KIR2DS4 /// KIR3DL3 /// KIR3DL3 /// KIR3DS1 (11738374_at) / Fold change /veh KIR2DL2 /// KIR2DL4 /// KIR2DL5A /// KIR2DL5B /// KIR2DS1 /// KIR2DS2 /// KIR2DS3 /// KIR2DS4 /// KIR3DL3 /// KIR3DL3 /// KIR3DS1 (11738374_at) / RFU C1QL1 (11718748_at) / Fold change /veh C1QL1 (11718748_at) / RFU TMPRSS4 (11747572_a_at) / Fold change /veh TMPRSS4 (11747572_a_at) / RFU HAMP (11756126_x_at) / Fold change /veh HAMP (11756126_x_at) / RFU RNFT2 (11725882_a_at) / Fold change /veh RNFT2 (11725882_a_at) / RFU NR4A2 (11747474_a_at) / Fold change /veh NR4A2 (11747474_a_at) / RFU ABCC12 (11746883_a_at) / Fold change /veh ABCC12 (11746883_a_at) / RFU TMEM136 (11760407_x_at) / Fold change /veh TMEM136 (11760407_x_at) / RFU CLDN22 /// WWC2 (11732394_at) / Fold change /veh CLDN22 /// WWC2 (11732394_at) / RFU HLA-DPB1 (11760878_x_at) / Fold change /veh HLA-DPB1 (11760878_x_at) / RFU SPINT1 (11716480_a_at) / Fold change /veh SPINT1 (11716480_a_at) / RFU GAP43 (11754022_s_at) / Fold change /veh GAP43 (11754022_s_at) / RFU A4GNT (11735810_at) / Fold change /veh A4GNT (11735810_at) / RFU PRB3 (11715151_x_at) / Fold change /veh PRB3 (11715151_x_at) / RFU TUBB4B (11761932_at) / Fold change /veh TUBB4B (11761932_at) / RFU CAPN14 (11732068_a_at) / Fold change /veh CAPN14 (11732068_a_at) / RFU TMCC2 (11721928_a_at) / Fold change /veh TMCC2 (11721928_a_at) / RFU IRGQ (11745062_a_at) / Fold change /veh IRGQ (11745062_a_at) / RFU FAM174B (11720279_a_at) / Fold change /veh FAM174B (11720279_a_at) / RFU TMPRSS4 (11748680_a_at) / Fold change /veh TMPRSS4 (11748680_a_at) / RFU FAM212B (11763350_a_at) / Fold change /veh FAM212B (11763350_a_at) / RFU PLEKHG5 (11743358_a_at) / Fold change /veh PLEKHG5 (11743358_a_at) / RFU ZSCAN30 (11745921_a_at) / Fold change /veh ZSCAN30 (11745921_a_at) / RFU CMKLR1 (11741424_a_at) / Fold change /veh CMKLR1 (11741424_a_at) / RFU LOC101060620 /// MAPK8IP1 (11723275_at) / Fold change /veh LOC101060620 /// MAPK8IP1 (11723275_at) / RFU SPTSSB (11747773_x_at) / Fold change /veh SPTSSB (11747773_x_at) / RFU PRSS12 (11739890_at) / Fold change /veh PRSS12 (11739890_at) / RFU BIN1 (11741810_x_at) / Fold change /veh BIN1 (11741810_x_at) / RFU WNT11 (11732464_a_at) / Fold change /veh WNT11 (11732464_a_at) / RFU C10orf10 (11716521_a_at) / Fold change /veh C10orf10 (11716521_a_at) / RFU C5orf56 (11738089_at) / Fold change /veh C5orf56 (11738089_at) / RFU CYB561 (11721691_x_at) / Fold change /veh CYB561 (11721691_x_at) / RFU ANKRD19P (11752326_a_at) / Fold change /veh ANKRD19P (11752326_a_at) / RFU OR2T12 /// OR2T33 /// OR2T8 (11738714_s_at) / Fold change /veh OR2T12 /// OR2T33 /// OR2T8 (11738714_s_at) / RFU VCAN (11748164_a_at) / Fold change /veh VCAN (11748164_a_at) / RFU JSRP1 (11732532_at) / Fold change /veh JSRP1 (11732532_at) / RFU KRTAP10-11 (11738290_x_at) / Fold change /veh KRTAP10-11 (11738290_x_at) / RFU MYO3A (11730013_a_at) / Fold change /veh MYO3A (11730013_a_at) / RFU EBF3 (11725865_a_at) / Fold change /veh EBF3 (11725865_a_at) / RFU CAMK2N1 (11719241_x_at) / Fold change /veh CAMK2N1 (11719241_x_at) / RFU C5orf56 (11738088_a_at) / Fold change /veh C5orf56 (11738088_a_at) / RFU OLFML3 (11715873_a_at) / Fold change /veh OLFML3 (11715873_a_at) / RFU LOC100653217 /// NTM (11731650_a_at) / Fold change /veh LOC100653217 /// NTM (11731650_a_at) / RFU MAPK11 (11762145_a_at) / Fold change /veh MAPK11 (11762145_a_at) / RFU FIZ1 (11724087_x_at) / Fold change /veh FIZ1 (11724087_x_at) / RFU OASL (11726364_x_at) / Fold change /veh OASL (11726364_x_at) / RFU SOX15 (11748057_x_at) / Fold change /veh SOX15 (11748057_x_at) / RFU CD79A (11719716_a_at) / Fold change /veh CD79A (11719716_a_at) / RFU HIST1H1D (11736915_at) / Fold change /veh HIST1H1D (11736915_at) / RFU CASKIN2 (11723855_a_at) / Fold change /veh CASKIN2 (11723855_a_at) / RFU LOC730098 (11760151_x_at) / Fold change /veh LOC730098 (11760151_x_at) / RFU OR4N2 (11742367_at) / Fold change /veh OR4N2 (11742367_at) / RFU PRRT2 (11749266_a_at) / Fold change /veh PRRT2 (11749266_a_at) / RFU SNX32 (11753110_a_at) / Fold change /veh SNX32 (11753110_a_at) / RFU CDHR5 (11726645_a_at) / Fold change /veh CDHR5 (11726645_a_at) / RFU RCAN1 (11760418_a_at) / Fold change /veh RCAN1 (11760418_a_at) / RFU FAM167A (11723789_a_at) / Fold change /veh FAM167A (11723789_a_at) / RFU FAM26E (11764081_at) / Fold change /veh FAM26E (11764081_at) / RFU ISYNA1 (11749810_s_at) / Fold change /veh ISYNA1 (11749810_s_at) / RFU ACY1 (11761880_at) / Fold change /veh ACY1 (11761880_at) / RFU 11764098_at / Fold change /veh 11764098_at / RFU SAMD14 (11745864_x_at) / Fold change /veh SAMD14 (11745864_x_at) / RFU NPB (11741838_a_at) / Fold change /veh NPB (11741838_a_at) / RFU TMPRSS6 (11731388_a_at) / Fold change /veh TMPRSS6 (11731388_a_at) / RFU KRTAP10-2 (11738614_at) / Fold change /veh KRTAP10-2 (11738614_at) / RFU ARHGAP8 /// PRR5-ARHGAP8 (11727945_x_at) / Fold change /veh ARHGAP8 /// PRR5-ARHGAP8 (11727945_x_at) / RFU KRTAP5-7 /// NADSYN1 (11734609_at) / Fold change /veh KRTAP5-7 /// NADSYN1 (11734609_at) / RFU RASL12 (11751679_a_at) / Fold change /veh RASL12 (11751679_a_at) / RFU CDKN2B (11736163_a_at) / Fold change /veh CDKN2B (11736163_a_at) / RFU PRF1 (11729649_at) / Fold change /veh PRF1 (11729649_at) / RFU, ZNF638 /// ZNF638-IT1 / Fold change vs veh, ZNF638 /// ZNF638-IT1 / RFU, PANK3 / Fold change vs veh, PANK3 / RFU, SH3YL1 / Fold change vs veh, SH3YL1 / RFU, ZEB2 / Fold change vs veh, ZEB2 / RFU, NRIP1 / Fold change vs veh, NRIP1 / RFU, PTTG1IP / Fold change vs veh, PTTG1IP / RFU, CAPN2 / Fold change vs veh, CAPN2 / RFU, MED14 / Fold change vs veh, MED14 / RFU, SNORA58 / Fold change vs veh, SNORA58 / RFU, C1orf63 / Fold change vs veh, C1orf63 / RFU, LRRFIP1 / Fold change vs veh, LRRFIP1 / RFU, NDUFAF7 / Fold change vs veh, NDUFAF7 / RFU, SLC12A2 / Fold change vs veh, SLC12A2 / RFU, IBTK / Fold change vs veh, IBTK / RFU, ESF1 / Fold change vs veh, ESF1 / Fold change vs veh, TMEM50B / RFU, TAOK1 / Fold change vs veh, TAOK1 / RFU, ACBD3 / Fold change vs veh, ACBD3 / RFU, TMA16 / Fold change vs veh, TMA16 / RFU, RWDD3 / Fold change vs veh, RWDD3 / RFU, BCAT1 / Fold change vs veh, BCAT1 / RFU, EDEM3 / Fold change vs veh, EDEM3 / RFU, TMEM33 / Fold change vs veh, TMEM33 / RFU, WDR75 / Fold change vs veh, WDR75 / RFU, AHCTF1 / Fold change vs veh, AHCTF1 / RFU, TFRC / Fold change vs veh, TFRC / RFU, ZDHHC17 / Fold change vs veh, ZDHHC17 / RFU, NOM1 / Fold change vs veh, NOM1 / RFU, ARL8B / Fold change vs veh, ARL8B / RFU, ZBTB11 / Fold change vs veh, ZBTB11 / RFU, TAMM41 / Fold change vs veh, TAMM41 / RFU, KIAA1704 /// LOC100996395 / Fold change vs veh, KIAA1704 /// LOC100996395 / RFU, ING1 / Fold change vs veh, ING1 / RFU, TRMT61B / Fold change vs veh, TRMT61B / RFU, FUBP3 / Fold change vs veh, FUBP3 / RFU, TP53 / Fold change vs veh, TP53 / RFU, TNKS2 / Fold change vs veh, TNKS2 / RFU, ZFP14 / Fold change vs veh, ZFP14 / RFU, ACTR2 / Fold change vs veh, ACTR2 / RFU, PPP3R1 / Fold change vs veh, PPP3R1 / RFU, PIK3R1 / Fold change vs veh, PIK3R1 / RFU, HNRNPA1 / Fold change vs veh, HNRNPA1 / RFU, RNF170 / Fold change vs veh, RNF170 / RFU, ZNF28 / Fold change vs veh, ZNF28 / RFU, RNGTT / Fold change vs veh, RNGTT / RFU, OGT / Fold change vs veh, OGT / RFU, BRD1 / Fold change vs veh, BRD1 / RFU, MARS / Fold change vs veh, MARS / RFU, ZNF655 / Fold change vs veh, ZNF655 / RFU, FAHD1 / Fold change vs veh, FAHD1 / RFU, BDP1 / Fold change vs veh, BDP1 / RFU, LRRCC1 / Fold change vs veh, LRRCC1 / RFU, ARID1A / Fold change vs veh, ARID1A / RFU, ZNF146 / Fold change vs veh, ZNF146 / RFU, ZNF330 / Fold change vs veh, ZNF330 / RFU, GPN3 / Fold change vs veh, GPN3 / RFU, C9orf123 / Fold change vs veh, C9orf123 / RFU, N4BP2L2 / Fold change vs veh, N4BP2L2 / RFU, ARFIP1 / Fold change vs veh, ARFIP1 / RFU, FAM179B / Fold change vs veh, FAM179B / RFU, BCL10 / Fold change vs veh, BCL10 / RFU, UHRF1BP1L / Fold change vs veh, UHRF1BP1L / RFU, BET1 / Fold change vs veh, BET1 / RFU, CNOT2 / Fold change vs veh, CNOT2 / RFU, ZNF268 / Fold change vs veh, ZNF268 / Fold change vs veh, ZNF507 / RFU, DGCR2 / Fold change vs veh, DGCR2 / RFU, WDSUB1 / Fold change vs veh, WDSUB1 / Fold change vs veh, HSP90B1 /// MIR3652 / RFU, ADSS / Fold change vs veh, ADSS / RFU, GK / Fold change vs veh, GK / RFU, ZNF148 / Fold change vs veh, ZNF148 / RFU, TAF9 / Fold change vs veh, TAF9 / RFU, SLC1A5 / Fold change vs veh, SLC1A5 / RFU, SLMO2 / Fold change vs veh, SLMO2 / RFU, ABCC4 / Fold change vs veh, ABCC4 / RFU, LOC101060439 /// RAP1B / Fold change vs veh, LOC101060439 /// RAP1B / RFU, RFX7 / Fold change vs veh, RFX7 / RFU, GTPBP10 / Fold change vs veh, GTPBP10 / RFU, CNEP1R1 / Fold change vs veh, CNEP1R1 / RFU, BIVM-ERCC5 /// ERCC5 / Fold change vs veh, BIVM-ERCC5 /// ERCC5 / RFU, ILF3 / Fold change vs veh, ILF3 / RFU 11762660_at / Fold change /veh 11762660_at / RFU VCAN (11757783_s_at) / Fold change /veh VCAN (11757783_s_at) / RFU DDX43 (11728927_at) / Fold change /veh DDX43 (11728927_at) / RFU KRT8 (11758188_x_at) / Fold change /veh KRT8 (11758188_x_at) / RFU NKD1 (11759106_at) / Fold change /veh NKD1 (11759106_at) / RFU SRD5A1 (11742802_a_at) / Fold change /veh SRD5A1 (11742802_a_at) / RFU TPSAB1 /// TPSB2 (11721975_s_at) / Fold change /veh TPSAB1 /// TPSB2 (11721975_s_at) / RFU GSTM3 (11746129_a_at) / Fold change /veh GSTM3 (11746129_a_at) / RFU IL23R (11737362_x_at) / Fold change /veh IL23R (11737362_x_at) / RFU TMEM51 (11727254_a_at) / Fold change /veh TMEM51 (11727254_a_at) / RFU PIWIL2 (11732686_x_at) / Fold change /veh PIWIL2 (11732686_x_at) / RFU ORM1 (11744905_x_at) / Fold change /veh ORM1 (11744905_x_at) / RFU CCDC152 (11743942_at) / Fold change /veh CCDC152 (11743942_at) / RFU ECM1 (11717891_a_at) / Fold change /veh ECM1 (11717891_a_at) / RFU IL23R (11748794_a_at) / Fold change /veh IL23R (11748794_a_at) / RFU TNFAIP8L3 (11732012_x_at) / Fold change /veh TNFAIP8L3 (11732012_x_at) / RFU MBOAT4 (11741988_at) / Fold change /veh MBOAT4 (11741988_at) / RFU 11764193_at / Fold change /veh 11764193_at / RFU TMEM53 (11763286_at) / Fold change /veh TMEM53 (11763286_at) / RFU MAGEB2 (11727129_at) / Fold change /veh MAGEB2 (11727129_at) / RFU TMEM200A (11744735_a_at) / Fold change /veh TMEM200A (11744735_a_at) / RFU CCDC152 (11751479_a_at) / Fold change /veh CCDC152 (11751479_a_at) / RFU FAM211A (11726209_a_at) / Fold change /veh FAM211A (11726209_a_at) / RFU RGS16 (11746705_a_at) / Fold change /veh RGS16 (11746705_a_at) / RFU VCAN (11755009_s_at) / Fold change /veh VCAN (11755009_s_at) / RFU RHOB (11743442_s_at) / Fold change /veh RHOB (11743442_s_at) / RFU RGS16 (11720943_a_at) / Fold change /veh RGS16 (11720943_a_at) / RFU RGS16 (11720944_at) / Fold change /veh RGS16 (11720944_at) / RFU, VPS4B / Fold change vs veh, VPS4B / RFU, CREB1 / Fold change vs veh, CREB1 / RFU, DNAJC13 / Fold change vs veh, DNAJC13 / RFU, GNAQ / Fold change vs veh, GNAQ / RFU, CDK5R1 / Fold change vs veh, CDK5R1 / RFU, ZRANB3 / Fold change vs veh, ZRANB3 / RFU, CUL4A / Fold change vs veh, CUL4A / RFU, CCNY / Fold change vs veh, CCNY / RFU, UFL1 / Fold change vs veh, UFL1 / RFU, COG3 / Fold change vs veh, COG3 / RFU, DIAPH2 / Fold change vs veh, DIAPH2 / RFU, SKA2 / Fold change vs veh, SKA2 / RFU, AFF3 / Fold change vs veh, AFF3 / RFU, LMF1 / Fold change vs veh, LMF1 / RFU, IPO11 / Fold change vs veh, IPO11 / RFU, DFFB / Fold change vs veh, DFFB / RFU, FOXP1 / Fold change vs veh, FOXP1 / RFU, CARD8 / Fold change vs veh, CARD8 / RFU, STRN3 / Fold change vs veh, STRN3 / RFU, ADK / Fold change vs veh, ADK / RFU, RASSF2 / Fold change vs veh, RASSF2 / RFU, WIPF1 / Fold change vs veh, WIPF1 / RFU, LARP1B / Fold change vs veh, LARP1B / RFU, RASA1 / Fold change vs veh, RASA1 / RFU, RB1 / Fold change vs veh, RB1 / RFU, PPFIA1 / Fold change vs veh, PPFIA1 / RFU, MAT2A / Fold change vs veh, MAT2A / RFU, CCT5 / Fold change vs veh, CCT5 / RFU, WDR92 / Fold change vs veh, WDR92 / RFU, CUX1 / Fold change vs veh, CUX1 / RFU, TTC7A / Fold change vs veh, TTC7A / RFU, TMEM135 / Fold change vs veh, TMEM135 / RFU, DEPTOR / Fold change vs veh, DEPTOR / RFU, CPM / Fold change vs veh, CPM / RFU, DNAJB6 / Fold change vs veh, DNAJB6 / RFU, CACNA2D3 / Fold change vs veh, CACNA2D3 / RFU, DTX4 / Fold change vs veh, DTX4 / RFU, TFCP2 / Fold change vs veh, TFCP2 / RFU, GMCL1 /// GMCL1P1 / Fold change vs veh, GMCL1 /// GMCL1P1 / RFU, AEBP2 / Fold change vs veh, AEBP2 / RFU, SNHG1 /// SNORD22 /// SNORD25 /// SNORD26 /// SNORD27 /// SNORD28 /// SNORD29 /// SNORD31 / Fold change vs veh, SNHG1 /// SNORD22 /// SNORD25 /// SNORD26 /// SNORD27 /// SNORD28 /// SNORD29 /// SNORD31 / Fold change (Aza/veh), C12orf56 (ProbeSet 11735607_a_at) / Fold change (ACY-1035/veh), C12orf56 (ProbeSet 11735607_a_at) / Fold change (Aza/veh), FGFR1OP (ProbeSet 11751329_s_at) / Fold change (ACY-1035/veh), FGFR1OP (ProbeSet 11751329_s_at) / Fold change (Aza/veh), VPS36 (ProbeSet 11739960_a_at) / Fold change (ACY-1035/veh), VPS36 (ProbeSet 11739960_a_at) / RFU SYPL1 (11715823_x_at) / Fold change /veh SYPL1 (11715823_x_at) / RFU IGFBP7 (11715501_s_at) / Fold change /veh IGFBP7 (11715501_s_at) / RFU REEP3 (11722064_at) / Fold change /veh REEP3 (11722064_at) / RFU IGLL1 (11728026_x_at) / Fold change /veh IGLL1 (11728026_x_at): dose or concentration left out as unconfirmed
Settings: ProbeSet 11716865_a_at; LIST B

`Nc1ncn([C@@H]2O[C@H](CO)[C@@H](O)[C@H]2O)c(=O)n1` [azacitidine] was tested, and the “RFU, SLC1A5” value was 258.33 RFU.
